Results reported in US20050054582A1, “Para-amino benzoic acids as integrin antagonists” (priority 2001, published 2005).
Where two headings read alike, the source gives them in different places.

Tests used:
[1] = test system: adhesion of Ramos cells to VCAM-1; assay: Adhesion of Ramos cells to immobilized VCAM-1 (domains 1-3); assay type: cell-based; settings: Homo sapiens
From the text: In Vitro Assay: Adhesion of Ramos Cells to Immobilized VCAM-1 (Domains 1-3) Preparation of VCAM-1 (Extracellular Domains 1-3)
Complementary DNA (cDNA) encoding 7-domain form of VCAM-1 (GenBank accession #M60335) was obtained using Rapid-Screen™ cDNA library panels (OriGene Technologies, Inc) at Takara Gene Analysis Center (Shiga, Japan). The primers used were 5′-CCAAGGCAGAGTACGCAAAC-3′ (sense) and 5′-TGGCAGGTATTATTAAGGAG-3′ (antisense). PCR amplification of the 3-domain VCAM-1 cDNA was perform using Pfu DNA polymerase (Stratagene) with the following sets of primers: (U-VCAMd1-3) 5′-CCATATGGTACCTGATCAATTTAAAATCGAGACCACCCCAGAA-3′; (L-VCAMdl-3) 5-CCATATAGCAATCCTAGGTCCAGGGGAGATCTCAACAGTAAA-3′. PCR cycle was 94° C. for 45 sec, 55° C. for 45 sec, 72° C. for 2 min, repeating 15 cycles. After the purification of the PCR product, the fragment was digested with KpnI-AvrII. The digested fragment was ligated into pBluescript IISK(−) (Strategene), which was linearized by digesting with KpnI-XhoI. The ligation was followed by transformation to a Dam/Dcm methylase-free E. coli strain SCS110 (Strategene) to create the donor plasmid […]. To direct VCAM-1 molecule into the insect cell secretory pathway, the VCAM-1 coding sequence was fused to signal peptide sequence of honeybee melittin. The resulting melittin-VCAM fusion was placed in correct orientation to the baculovirus polyhedrin promoter. Baculovirus transfer vector containing first 3-domain form VCAM-1 (pH10) was constructed by ligation of 0.9 kb fragment from AvrII/Klenow/BclI digests of pH7 into SalI/Klenow/BamHI digests of pMelBacB (Invitrogen). Recombinant baculovirus was generated by using Bac-N-Blue™ Transfection kit (Invitrogen) according to the manufacture's instruction. The recombinant virus was amplified by infection to High-Five™ insect cells for 5-6 days, and virus titer was determined by plaque assay.
High-Five™ insect cells were pelleted in a 225 ml conical tube by centrifugation at 1000 rpm for 5 min. After discarding the supernatant, the pellet was resuspended in 1.5×10^9 pfu (MOI=5) of high-titer virus solution, followed by incubation for 1.5 hours at room temperature. The cells were pelleted again and washed once in fresh Express Five™ serum free medium. The cells were pelleted again and finally, resuspended in 200 ml of fresh Express Five TM medium, transferred to a 1,000 ml shaker flask, and incubated in a shaker at 27° C., 130 rpm, for 48 hours before the culture supernatant was collected. The purification of 3-domain form of VCAM-1 from the culture supernatant was performed by one-step anion exchange chromatography. Protein concentration was determined by using Coomassie protein assay reagent (Pierce) according to the manufacture's instruction.
Preparation of VCAM-1 Coated Microtiter Plates
Recombinant human VCAM-1 (extracellular domains 1-3) was dissolved at 1.0 μg/ml in PBS. Each well of the microtiter plates (Nalge Nunc International, Fluoronunc Cert, 437958) was coated with 100 μl of substrate or for background control with buffer alone for 15 hours at 4 C. After discarding the substrate solution, the wells were blocked using 150 μl per well of block solution (Kirkegaard Perry Laboratories, 50-61-01) for 90 minutes. The plate was washed with wash buffer containing 24 mM Tris-HCl (pH 7.4), 137 mM NaCl, […] and 2 mM MnCl2 just before addition of the assay.
In Vitro Assay using Ramos Cells
Preparation of Fluorescence Labeled Ramos Cells:
Ramos cells (American Type Culture Collection, Clone CRL-1596) were cultured in RPMI 1640 medium (Nikken Bio Medical Laboratory, CM1101) supplemented with 10% fetal bovine serum (Hyclone, A-1119-L), 100 U/ml penicilin (Gibco BRL, 15140-122) and 100 μg/ml streptomycin (Gibco BRL, 15140-122) in a humidified incubator at 37° C. with 5% CO2. […]

SMILES	IC50 ([1]; Ramos) [nM]	melting point [°C]	IC50 ([1]; observed IC50 value ranges, Table 4 does not say whether Ramos-VCAM-1 or Jurkat-VCAM-1, read-out: IC50) [nM]
Cc1ccccc1NC(=O)Nc1ccc(CC(=O)NCC(=O)Nc2ccc(C(=O)O)cc2)cc1 [Example 39, 4-[(N-{[4-({[(2-methylphenyl)amino]carbonyl}amino)phenyl]acetyl}glycyl)amino]benzoic acid]	< 500	268 to 271	
Cc1ccccc1NC(=O)Nc1ccc(CC(=O)N[C@H](CCCCN)C(=O)Nc2ccc(C(=O)O)cc2)cc1.O=C(O)C(F)(F)F [Example 54, 4-[(N^2-{[4-({[(2-methylphenyl)amino]carbonyl}amino)phenyl]acetyl}-D-lysyl)amino]benzoic acid trifluoroacetate]		73 to 75	< 500
O=C(CN(CCc1ccc(Cl)c(Cl)c1)C(=O)Cc1ccc2nc(Nc3ccccc3)oc2c1)Nc1ccc(C(=O)O)cc1 [Example 79]	2000 to 10000	170 to 171	
Cc1ccccc1Nc1nc2ccc(CC(=O)N(CCc3ccccn3)CC(=O)Nc3ccc(C(=O)O)cc3)cc2o1 [Example 83, 4-({N-({2-[(2-methylphenyl)amino]-1,3-benzoxazol-6-yl}acetyl)-N-[2-(2-pyridinyl)ethyl]glycyl}amino)benzoic acid]	< 500	175 to 176	
Cc1ccccc1NC(=O)Nc1ccc(CC(=O)NC2CCN(c3ccc(C(=O)O)cc3)C2)cc1 (stereo not drawn) [Example 50, 4-[3-({[4-({[(2-methylphenyl)amino]carbonyl}amino)phenyl]acetyl}amino)-1-pyrrolidinyl]benzoic acid]	< 500	239 to 242	
Cc1ccccc1NC(=O)Nc1ccc(CC(=O)NCC(=O)N(CC(C)C)c2ccc(C(=O)O)cc2)cc1 [Example 51, 4-[isobutyl(N-{[4-({[(2-methylphenyl)amino]carbonyl}amino)phenyl]acetyl}glycyl)amino]benzoic acid]	> 10000	131 to 132	
